Assays:
Assay type in all cases: cell-based
[1] = biological target: T1, TYK2 (Homo sapiens, UniProt P29597); assay: TYK2 degradation MSD assay in human PBMC cells; design: endogenous in cells; host or cells: human PBMC; details: 4 to 24 hours incubation, read-out: TYK2 MSD DC50 rating in human PBMC
In short: (§1)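 TYK2 levels in lysed cells, detected via antibody capture and SULFO-TAG electrochemiluminescence, were compared across a nine-point threefold compound dilution (highest 1 to 10 μM) after 4–24 h culture at 37° C under 5% CO2. Four-parameter nonlinear regression of the dose response yielded DC50.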

[2] = biological target: T1, TYK2; assay: TYK2 degradation MSD assay in EBV-B cells; design: endogenous in cells; host or cells: EBV-B cells
In short: as §1

[3] = biological target: T1, TYK2; assay: TYK2 degradation MSD assay in OCI-LY10 cells; design: endogenous in cells; host or cells: EBV-B cells; details: 4 to 24 hours incubation, read-out: TYK2 MSD DC50 rating in OCI-LY10
In short: as §1

[4] = 4 to 24 hours incubation, read-out: TYK2 MSD DC50 rating in EBV-B

T1 sequence (P29597 whole entry): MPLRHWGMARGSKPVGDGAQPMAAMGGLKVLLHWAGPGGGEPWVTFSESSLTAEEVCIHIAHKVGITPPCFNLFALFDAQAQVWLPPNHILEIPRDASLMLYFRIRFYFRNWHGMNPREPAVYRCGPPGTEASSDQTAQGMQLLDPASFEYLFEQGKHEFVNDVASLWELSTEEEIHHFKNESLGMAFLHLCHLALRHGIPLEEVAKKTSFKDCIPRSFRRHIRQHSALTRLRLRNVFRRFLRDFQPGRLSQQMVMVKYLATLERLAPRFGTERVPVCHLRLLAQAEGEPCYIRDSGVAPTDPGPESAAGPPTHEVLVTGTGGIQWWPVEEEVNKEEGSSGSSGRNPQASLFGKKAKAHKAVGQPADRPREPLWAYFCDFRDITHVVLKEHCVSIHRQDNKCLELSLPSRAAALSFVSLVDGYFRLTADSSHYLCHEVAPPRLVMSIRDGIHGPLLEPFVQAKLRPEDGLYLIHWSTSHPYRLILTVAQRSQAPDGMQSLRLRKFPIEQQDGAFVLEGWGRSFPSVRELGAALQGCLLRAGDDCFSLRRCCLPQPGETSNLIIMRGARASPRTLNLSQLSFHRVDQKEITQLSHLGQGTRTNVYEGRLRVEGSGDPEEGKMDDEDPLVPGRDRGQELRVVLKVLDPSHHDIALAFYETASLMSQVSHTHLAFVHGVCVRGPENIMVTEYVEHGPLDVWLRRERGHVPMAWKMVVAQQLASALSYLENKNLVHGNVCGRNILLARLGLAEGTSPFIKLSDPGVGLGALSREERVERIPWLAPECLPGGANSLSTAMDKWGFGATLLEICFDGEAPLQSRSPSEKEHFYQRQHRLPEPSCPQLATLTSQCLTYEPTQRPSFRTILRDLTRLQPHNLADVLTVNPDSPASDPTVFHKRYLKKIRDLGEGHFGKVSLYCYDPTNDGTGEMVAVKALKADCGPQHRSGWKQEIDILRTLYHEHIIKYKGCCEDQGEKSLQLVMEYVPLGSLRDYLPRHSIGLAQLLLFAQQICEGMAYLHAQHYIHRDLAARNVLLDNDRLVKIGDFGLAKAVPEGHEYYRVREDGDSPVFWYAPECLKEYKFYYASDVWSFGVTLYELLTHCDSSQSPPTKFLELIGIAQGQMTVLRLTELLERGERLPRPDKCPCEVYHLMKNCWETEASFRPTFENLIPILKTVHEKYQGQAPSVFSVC

| SMILES | DC50 [1] [µM] | DC50 [2, 4] [µM] | DC50 [3] [µM] | DC50 ([2]; read-out: TYK2 MSD DC50 rating in EBV-B, 4 to 24 hours incubation) [µM] |
| --- | --- | --- | --- | --- |
| CNc1cc(-c2cnn(C3CN(C(=O)NCCCCc4ccc5c(c4)n(C)c(=O)n5C4CCC(=O)NC4=O)C3)c2)nn2c(C(=O)N[C@@H]3C[C@@H]3F)cnc12 (stereo partly drawn) [Example K314] | > 0.1 | > 0.1 | > 0.1 |  |
| CNc1cc(-c2cnn(C3CN(C(=O)NCCCCCCc4ccc5c(c4)n(C)c(=O)n5C4CCC(=O)NC4=O)C3)c2)nn2c(C(=O)N[C@@H]3C[C@@H]3F)cnc12 (stereo partly drawn) [Example K315] | > 0.1 | > 0.1 | > 0.1 |  |
| CNc1cc(-c2cnn(C3CN(C(=O)NCCCCc4cccc5c4n(C)c(=O)n5C4CCC(=O)NC4=O)C3)c2)nn2c(C(=O)N[C@@H]3C[C@@H]3F)cnc12 (stereo partly drawn) [Example K316] | > 0.1 | > 0.1 | > 0.1 |  |
| CNc1cc(-c2cnn(C3CN(C(=O)NCCCCCCc4cccc5c4n(C)c(=O)n5C4CCC(=O)NC4=O)C3)c2)nn2c(C(=O)N[C@@H]3C[C@@H]3F)cnc12 (stereo partly drawn) [Example K317] | > 0.1 | > 0.1 | > 0.1 |  |
| CNc1cc(-c2cnn(C3CN(C(=O)NCCCCCCCCc4ccc5c(c4)n(C)c(=O)n5C4CCC(=O)NC4=O)C3)c2)nn2c(C(=O)NC3C[C@@H]3F)cnc12 (stereo partly drawn) [Example K318] | > 0.1 | > 0.1 | > 0.1 |  |
| CNc1cc(-c2cnn(C3CN(C(=O)NCCCCCCCCc4cccc5c4n(C)c(=O)n5C4CCC(=O)NC4=O)C3)c2)nn2c(C(=O)N[C@@H]3C[C@@H]3F)cnc12 (stereo partly drawn) [Example K319] | > 0.1 | > 0.1 | > 0.1 |  |
| CNc1cc(Nc2cccn(-c3ccc(C(=O)NCCCCc4ccc5c(c4)n(C)c(=O)n5C4CCC(=O)NC4=O)cn3)c2=O)nn2c(C(N)=O)cnc12 (stereo not drawn) [Example K320] | > 0.1 | > 0.1 | > 0.1 |  |
| CNc1cc(Nc2cccn(-c3ccc(C(=O)NCCCCc4ccc5c(c4)n(C)c(=O)n5C4CCC(=O)NC4=O)cn3)c2=O)nn2c(C(=O)NC3CCC3)cnc12 (stereo not drawn) [Example K321] | > 0.1 | > 0.1 | > 0.1 |  |
| CNc1cc(Nc2cccn(-c3ccc(C(=O)NCCCCc4ccc5c(c4)n(C)c(=O)n5C4CCC(=O)NC4=O)cn3)c2=O)nn2c(C(=O)NC3CC3)cnc12 (stereo not drawn) [Example K322] | > 0.1 | > 0.1 | > 0.1 |  |
| Cn1c(=O)n(C2CCC(=O)NC2=O)c2ccc(CCCCNC(=O)c3ccc(-c4ccc5ncc(C(=O)N[C@@H]6C[C@@H]6F)n5n4)cc3)cc21 (stereo partly drawn) [Example K324] | > 0.1 | > 0.1 | > 0.1 |  |
| Cn1c(=O)n(C2CCC(=O)NC2=O)c2ccc(CCCCNC(=O)c3ccc(-n4cccc(Nc5ccc6ncc(C(=O)N[C@@H]7C[C@@H]7F)n6n5)c4=O)nc3)cc21 (stereo partly drawn) [Example K325] | > 0.1 | > 0.1 | > 0.1 |  |
| Cn1c(=O)n(C2CCC(=O)NC2=O)c2ccc(CCCCNC(=O)c3ccccc3Nc3ccc4ncc(C(=O)N[C@@H]5C[C@@H]5F)n4n3)cc21 (stereo partly drawn) [Example K326] | > 0.1 | > 0.1 | > 0.1 |  |
| Cn1c(=O)n(C2CCC(=O)NC2=O)c2ccc(CCCCC(=O)N3CCC(n4cc(-c5ccc6ncc(C(=O)N[C@@H]7C[C@@H]7F)n6n5)cn4)CC3)cc21 (stereo partly drawn) [Example K327] | > 0.1 | > 0.1 | > 0.1 |  |
| Cn1c(=O)n(C2CCC(=O)NC2=O)c2ccc(CCCCNC(=O)c3cccc(Nc4ccc5ncc(C(=O)N[C@@H]6C[C@@H]6F)n5n4)c3)cc21 (stereo partly drawn) [Example K328] | > 0.1 |  | > 0.1 | > 0.1 |
| CNc1cc(Nc2cccn(C3CCN(C(=O)NCCCCc4ccc5c(c4)n(C)c(=O)n5C4CCC(=O)NC4=O)CC3)c2=O)nc2c(C(=O)N[C@@H]3C[C@@H]3F)cnn12 (stereo partly drawn) [Example K330] | > 0.1 | > 0.1 | > 0.1 |  |
| CNc1cc(Nc2cccn(-c3ccc(C(=O)N4CCC(CC#Cc5cccc6c5n(C)c(=O)n6C5CCC(=O)NC5=O)CC4)cn3)c2=O)nn2c(C(=O)N[C@@H]3C[C@@H]3F)cnc12 (stereo partly drawn) [Example K331] | < 0.001 | > 0.1 | > 0.1 |  |

The next lines start with results.

| DC50 [1] [µM] | DC50 [2, 4] [µM] | DC50 [3] [µM] | SMILES | DC50 ([2]; read-out: TYK2 MSD DC50 rating in EBV-B, 4 to 24 hours incubation) [µM] |
| --- | --- | --- | --- | --- |
| > 0.1 | > 0.1 | > 0.1 | Cn1c(=O)n(C2CCC(=O)NC2=O)c2ccc(CN3CCC(CNc4cc(Nc5cccn(-c6ccccn6)c5=O)nn5c(C(=O)N[C@@H]6C[C@@H]6F)cnc45)CC3)cc21 (stereo partly drawn) [Example K360] |  |
| > 0.1 | > 0.1 | > 0.1 | CNc1cc(-c2cnn(C3CCC(CN(C)C4CCN(c5ccc6c(c5)n(C)c(=O)n6C5CCC(=O)NC5=O)CC4)CC3)c2)nn2c(C(=O)N[C@@H]3C[C@@H]3F)cnc12 (stereo partly drawn) [Example K361] |  |
| < 0.001 | > 0.1 | > 0.1 | CNc1cc(-c2cnn(C3CCC(CN4CC5(CCN(c6cccc7c6n(C)c(=O)n7C6CCC(=O)NC6=O)CC5)C4)CC3)c2)nn2c(C(=O)NC3C[C@@H]3F)cnc12 (stereo partly drawn) [Example K362] |  |
| < 0.001 | > 0.1 | > 0.1 | CNc1cc(-c2cnn(C3CCC(CN4CC5(CCN(c6ccc7c(c6)n(C)c(=O)n7C6CCC(=O)NC6=O)CC5)C4)CC3)c2)nn2c(C(=O)N[C@@H]3C[C@@H]3F)cnc12 (stereo partly drawn) [Example K363] |  |
| > 0.1 | > 0.1 | > 0.1 | CNc1cc(-c2cnn(C3CCC(CN4CCC(CN(C)c5ccc6c(c5)n(C)c(=O)n6C5CCC(=O)NC5=O)CC4)CC3)c2)nn2c(C(=O)NC3C[C@@H]3F)cnc12 (stereo partly drawn) [Example K364] |  |
| > 0.1 | > 0.1 | > 0.1 | Cn1c(=O)n(C2CCC(=O)NC2=O)c2ccc(-c3ccc(CCCNc4cc(Nc5cccn(-c6ccccn6)c5=O)nn5c(C(=O)N[C@@H]6C[C@@H]6F)cnc45)nc3)cc21 (stereo partly drawn) [Example K365] |  |
| > 0.1 | > 0.1 | > 0.1 | Cn1c(=O)n(C2CCC(=O)NC2=O)c2ccc(C3CCN(CCCNc4cc(Nc5cccn(-c6ccccn6)c5=O)nn5c(C(=O)N[C@@H]6C[C@@H]6F)cnc45)CC3)cc21 (stereo partly drawn) [Example K366] |  |
| > 0.1 | > 0.1 | > 0.1 | Cn1c(=O)n(C2CCC(=O)NC2=O)c2ccc(CN3CCC(Nc4cc(Nc5cccn(-c6ccccn6)c5=O)nn5c(C(=O)N[C@@H]6C[C@@H]6F)cnc45)CC3)cc21 (stereo partly drawn) [Example K367] |  |
| 0.001 to 0.01 | > 0.1 | > 0.1 | CNc1cc(Nc2cccn(-c3ccc(C(=O)N(C)CCCOCCCc4cccc5c4n(C)c(=O)n5C4CCC(=O)NC4=O)cn3)c2=O)nn2c(C(=O)N[C@@H]3C[C@@H]3F)cnc12 (stereo partly drawn) [Example K369] |  |
| > 0.1 | < 0.001 | < 0.001 | CNc1cc(Nc2cccn(-c3ccc(C(=O)NCc4ccc(N5CCC(N6CCC(c7ccc8c(c7)n(C)c(=O)n8C7CCC(=O)NC7=O)C6)CC5)cc4)cn3)c2=O)nn2c(C(=O)N[C@@H]3C[C@@H]3F)cnc12 (stereo partly drawn) [Example K370] |  |
| > 0.1 | 0.001 to 0.01 | > 0.1 | CNc1cc(Nc2cccn(-c3ccc(C(=O)N4CCCC5(C4)CN(c4ncc(C#Cc6ccc7c(c6)n(C)c(=O)n7C6CCC(=N)NC6=O)cn4)C5)cn3)c2=O)nn2c(C(=O)N[C@@H]3C[C@@H]3F)cnc12 (stereo partly drawn) [Example K371] |  |
| > 0.1 | < 0.001 | > 0.1 | CNc1cc(Nc2cccn(-c3ccc(C(=O)N4CC5(C4)CN(c4ccc(-c6ccc7c(c6)n(C)c(=O)n7C6CCC(=O)NC6=O)cc4)C5)cn3)c2=O)nn2c(C(=O)N[C@@H]3C[C@@H]3F)cnc12 (stereo partly drawn) [Example K372] |  |
| > 0.1 | < 0.001 | > 0.1 | CNc1cc(Nc2cccn(-c3ccc(C(=O)N4CCN(CC5CC(c6ccc(-c7ccc8c(c7)n(C)c(=O)n8C7CCC(=O)NC7=O)cc6)C5)CC4)cn3)c2=O)nn2c(C(=O)N[C@@H]3C[C@@H]3F)cnc12 (stereo partly drawn) [Example K373] |  |
| > 0.1 | < 0.001 | > 0.1 | CNc1cc(Nc2cccn(-c3ccc(C(=O)N4CCN(CC5CCN(c6ccc(-c7ccc8c(c7)n(C)c(=O)n8C7CCC(=O)NC7=O)cc6)CC5)CC4)cn3)c2=O)nn2c(C(=O)N[C@@H]3C[C@@H]3F)cnc12 (stereo partly drawn) [Example K374] |  |
| > 0.1 | 0.001 to 0.01 | > 0.1 | CNc1cc(Nc2cccn(-c3ccc(C(=O)N4CCC(CN5CCC56CN(c5ncc(C#Cc7ccc8c(c7)n(C)c(=O)n8C7CCC(=O)NC7=O)cn5)C6)CC4)cn3)c2=O)nn2c(C(=O)N[C@@H]3C[C@@H]3F)cnc12 (stereo partly drawn) [Example K375] |  |
| > 0.1 | 0.01 to 0.1 | > 0.1 | CNc1cc(Nc2cccn(-c3ccc(C(=O)N4CCC45CN(c4ncc(C#Cc6ccc7c(c6)n(C)c(=O)n7C6CCC(=O)NC6=O)cn4)C5)cn3)c2=O)nn2c(C(=O)N[C@@H]3C[C@@H]3F)cnc12 (stereo partly drawn) [Example K376] |  |
| > 0.1 | < 0.001 | > 0.1 | CNc1cc(Nc2cccn(-c3ccc(C(=O)N4CCN([C@H]5CC[C@@H](c6ccc(-c7ccc8c(c7)n(C)c(=O)n8C7CCC(=O)NC7=O)cc6)CC5)CC4)cn3)c2=O)nn2c(C(=O)N[C@@H]3C[C@@H]3F)cnc12 (stereo partly drawn) [Example K377] |  |
| > 0.1 | < 0.001 | > 0.1 | CNc1cc(Nc2cccn(-c3ccc(C(=O)N4CCN(c5ccc(-c6ccc7c(c6)n(C)c(=O)n7C6CCC(=O)NC6=O)cn5)C(=O)C4)cn3)c2=O)nn2c(C(=O)N[C@@H]3C[C@@H]3F)cnc12 (stereo partly drawn) [Example K378] |  |
| > 0.1 | < 0.001 | > 0.1 | CNc1cc(Nc2cccn(-c3ccc(C(=O)N4CCN(CCCOCCc5ccc(-c6ccc7c(c6)n(C)c(=O)n7C6CCC(=O)NC6=O)cc5)CC4)cn3)c2=O)nn2c(C(=O)N[C@@H]3C[C@@H]3F)cnc12 (stereo partly drawn) [Example K379] |  |

Source: patent US20250051338A1, “TYK2 DEGRADERS AND USES THEREOF” (Kymera Therapeutics, Inc., priority 2021, published 2025)
